We go through 17 molecules from patent publication US10604534B2, “C5-C6-oxacyclic fused iminothiadiazine dioxide compounds bearing an ether linker as BACE inhibitors, compositions, and their use” (Merck Sharp & Dohme Corp., priority 2016, dated 2020).

Assay [1] deals with purified human autoBACE-2 (Homo sapiens (Human), UniProt Q9Y5Z0). The assay is described as follows: BACE-2 Assay (BACE-HTRF assay). It counts as biochemical. Particulars: Ki calculated from IC50 using the Cheng-Prusoff equation; QSY7-EISEVNLDAEFC-Eu-amide substrate, pH 5.0. The method, then:
Inhibitor IC50s at purified human autoBACE-2 are determined in a time-resolved endpoint proteolysis assay that measures hydrolysis of the QSY7-EISEVNLDAEFC-Eu-amide FRET peptide substrate (BACE-HTRF assay). BACE-mediated hydrolysis of this peptide results in an increase in relative fluorescence (RFU) at 620 nm after excitation with 320 nm light. Inhibitor compounds, prepared at 3× the desired final concentration in 1×BACE assay buffer (20 mM sodium acetate pH 5.0, 10% glycerol, 0.1% Brij-35) supplemented with 7.5% DMSO are preincubated with an equal volume of autoBACE-2 enzyme diluted in 1×BACE assay buffer (final enzyme concentration 1 nM) in black 384-well NUNC plates for 30 minutes at 30° C. […] DMSO is present at 5% final concentration in the assay. Following laser excitation of sample wells at 320 nm, the fluorescence signal at 620 nm is collected for 400 ms following a […] on a RUBYstar HTRF plate reader (BMG Labtechnologies). Raw RFU data is normalized to maximum (1.0 nM BACE/DMSO) and minimum (no enzyme/DMSO) RFU values. IC50s are determined by nonlinear regression analysis (sigmoidal dose response, variable slope) of percent inhibition data with minimum and maximum values set to 0 and 100 percent respectively. Similar IC50s are obtained when using raw RFU data. The Ki values are calculated from the IC50 using the Cheng-Prusoff equation.

The target in assay [2] is soluble human BACE1 catalytic domain (Homo sapiens (Human), UniProt P56817). Briefly: BACE1 HTRF FRET Assay. As to conditions: Ki calculated from IC50 using the Cheng-Prusoff equation; QSY7-APPswe-Eu substrate, pH 5.0; read-out: BACE-1 Ki. The class given is biochemical. From the text: • Reagents: Na^+-Acetate pH 5.0; 1% Brij-35; Glycerol; Dimethyl Sulfoxide (DMSO); Recombinant human soluble BACE1 catalytic domain (>95% pure); APP Swedish mutant peptide substrate (QSY7-APP^swe-Eu): QSY7-EISEVNLDAEFC-Europium-amide.
A homogeneous time-resolved FRET assay can be used to determine IC50 values for inhibitors of the soluble human BACE1 catalytic domain. This assay monitors the increase of 620 nm fluorescence that resulted from BACE1 cleavage of an APPswedish APP^swe mutant peptide FRET substrate (QSY7-EISEVNLDAEFC-Europium-amide). This substrate contains an N-terminal QSY7 moiety that serves as a quencher of the C-terminal Europium fluorophore (620 nm Em). In the absence of enzyme activity, 620 nm fluorescence is low in the assay and increased linearly over 3 hours in the presence of uninhibited BACE1 enzyme. Inhibition of BACE1 cleavage of the QSY7-APP^swe-Eu substrate by inhibitors is manifested as a suppression of 620 nm fluorescence.
Varying concentrations of inhibitors at 3× the final desired concentration in a volume of 10 ul are preincubated with purified human BACE1 catalytic domain (3 nM in 10 μl) for 30 minutes at 30° C. in reaction buffer containing 20 mM Na-Acetate pH 5.0, 10% glycerol, 0.1% Brij-35 and 7.5% DSMO. Reactions are initiated by addition of 10 μl of 600 nM QSY7-APP^swe-Eu substrate (200 nM final) to give a final reaction volume of 30 μl in a 384 well Nunc HTRF plate. The reactions are incubated at 30° C. for 1.5 hours. The 620 nm fluorescence is then read on a Rubystar HTRF plate reader (BMG Labtechnologies) using a 50 millisecond delay followed by a 400 millisecond acquisition time window. Inhibitor IC50 values are derived from non-linear regression analysis of concentration response curves. Ki values are then calculated from IC50 values using the Cheng-Prusoff equation using a previously determined m value of […] for the QSY7-APP^swe-Eu substrate at BACE1.

Each structure is given as a SMILES string.

soluble human BACE1 catalytic domain, sequence (P56817 75-416): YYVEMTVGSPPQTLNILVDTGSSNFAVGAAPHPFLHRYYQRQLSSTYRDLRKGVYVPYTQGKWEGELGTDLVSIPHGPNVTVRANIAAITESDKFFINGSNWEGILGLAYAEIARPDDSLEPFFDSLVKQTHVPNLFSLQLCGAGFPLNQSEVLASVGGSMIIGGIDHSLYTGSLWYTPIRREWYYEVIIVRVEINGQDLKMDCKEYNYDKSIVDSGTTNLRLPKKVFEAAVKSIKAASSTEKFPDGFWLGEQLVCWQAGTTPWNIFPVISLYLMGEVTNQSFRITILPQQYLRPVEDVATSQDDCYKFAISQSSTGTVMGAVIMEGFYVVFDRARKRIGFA
purified human autoBACE-2, sequence (Q9Y5Z0 63-473): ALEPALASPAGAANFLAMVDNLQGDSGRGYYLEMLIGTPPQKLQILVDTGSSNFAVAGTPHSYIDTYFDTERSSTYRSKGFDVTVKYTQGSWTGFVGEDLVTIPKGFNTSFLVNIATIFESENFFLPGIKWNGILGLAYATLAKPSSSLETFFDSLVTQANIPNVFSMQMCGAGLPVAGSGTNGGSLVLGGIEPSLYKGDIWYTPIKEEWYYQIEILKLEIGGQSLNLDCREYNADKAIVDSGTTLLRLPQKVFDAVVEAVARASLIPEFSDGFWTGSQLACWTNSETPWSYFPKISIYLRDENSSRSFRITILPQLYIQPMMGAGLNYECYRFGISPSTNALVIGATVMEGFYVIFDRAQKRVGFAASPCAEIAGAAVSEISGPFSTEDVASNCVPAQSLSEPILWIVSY

For the molecule `COC[C@H]1C[C@@H]2[C@](c3cc(OCC45CC(C#N)(C4)C5)ccc3F)(CO1)NC(=N)N(C)S2(=O)=O` [Example 15, 3-((4-fluoro-3-((4aS,7R,8aR)-3-imino-7-(methoxymethyl)-2-methyl-1,1-dioxidooctahydropyrano[3,4-e][1,2,4]thiadiazin-4a-yl)phenoxy)methyl)bicyclo[1.1.1]pentane-1-carbonitrile], the Ki was 28 nM in assay [1] and 9.1 nM in assay [2].
For the molecule `COC[C@H]1C[C@@H]2[C@](c3cc(Oc4cncc(OC)n4)ccc3F)(CO1)NC(=N)N(C)S2(=O)=O` [Example 9, (4aS,7R,8aR)-4a-(2-fluoro-5-((6-methoxypyrazin-2-yl)oxy)phenyl)-3-imino-7-(methoxymethyl)-2-methyloctahydropyrano[3,4-e][1,2,4]thiadiazine 1,1-dioxide], the figures for the Ki in assay [1] and in assay [2] were 9.4 nM and 4.6 nM, respectively.
Consider `C[C@H]1C[C@@H]2[C@](c3cc(Oc4cc(C#N)ccn4)ccc3F)(CO1)NC(=N)N(C)S2(=O)=O` [Example 3, 2-(4-fluoro-3-((4aS,7S,8aR)-3-imino-2,7-dimethyl-1,1-dioxidooctahydropyrano[3,4-e][1,2,4]thiadiazin-4a-yl)phenoxy)isonicotinonitrile], for which the values for the inhibitory constant (Ki) in assay [1] and in assay [2] were 2.3 nM and 2.7 nM, respectively.
In the same order, the values of `C[C@H]1C[C@@H]2[C@](c3cc(Oc4ncccc4F)ccc3F)(CO1)NC(=N)N(C)S2(=O)=O` [Example 1, (4aS,7S,8aR)-4a-(2-fluoro-5-((3-fluoropyridin-2-yl)oxy)phenyl)-3-imino-2,7-dimethyloctahydropyrano[3,4-e][1,2,4]thiadiazine 1,1-dioxide] are 1.6 nM and 3.4 nM.
Turning to `C[C@H]1C[C@@H]2[C@](c3cc(OCC45CC(C#N)(C4)C5)ccc3F)(CO1)NC(=N)N(C)S2(=O)=O` [Example 8, 3-((4-fluoro-3-((4aS,7S,8aR)-3-imino-2,7-dimethyl-1,1-dioxidooctahydropyrano[3,4-e][1,2,4]thiadiazin-4a-yl)phenoxy)methyl)bicyclo[1.1.1]pentane-1-carbonitrile], the Ki in assay [1] is 28 nM; in assay [2], 9.1 nM.
`COC[C@H]1C[C@@H]2[C@](c3cc(Oc4cccc(C#N)c4)ccc3F)(CO1)NC(=N)N(C)S2(=O)=O` [Example 17, 3-(4-fluoro-3-((4aS,7R,8aR)-3-imino-7-(methoxymethyl)-2-methyl-1,1-dioxidooctahydropyrano[3,4-e][1,2,4]thiadiazin-4a-yl)phenoxy)benzonitrile]: the values for the Ki in assay [1] and in assay [2] were 6.9 nM and 4.3 nM, respectively.
In the same order, the values of `COC[C@H]1C[C@@H]2[C@](c3cc(Oc4cc(F)cnc4F)ccc3F)(CO1)NC(=N)N(C)S2(=O)=O` [Example 13, (4aS,7R,8aR)-4a-(5-((2,5-difluoropyridin-3-yl)oxy)-2-fluorophenyl)-3-imino-7-(methoxymethyl)-2-methyloctahydropyrano[3,4-e][1,2,4]thiadiazine 1,1-dioxide] are 10 nM and 2.1 nM.
Consider `C[C@H]1C[C@@H]2[C@](c3cc(OCC4CC4)ccc3F)(CO1)NC(=N)N(C)S2(=O)=O` [Example 7, (4aS,7S,8aR)-4a-(5-(cyclopropylmethoxy)-2-fluorophenyl)-3-imino-2,7-dimethyloctahydropyrano[3,4-e][1,2,4]thiadiazine 1,1-dioxide], for which the Ki in assay [1] is 4.3 nM; in assay [2], 28 nM.
Turning to `COC[C@H]1C[C@@H]2[C@](c3cc(Oc4ncc(F)cc4F)ccc3F)(CO1)NC(=N)N(C)S2(=O)=O` [Example 12, (4aS,7R,8aR)-4a-(5-((3,5-difluoropyridin-2-yl)oxy)-2-fluorophenyl)-3-imino-7-(methoxymethyl)-2-methyloctahydropyrano[3,4-e][1,2,4]thiadiazine 1,1-dioxide], the Ki was 18 nM in assay [1] and 20 nM in assay [2].
Turning to `COC[C@H]1C[C@@H]2[C@](c3cc(Oc4ncncc4F)ccc3F)(CO1)NC(=N)N(C)S2(=O)=O` [Example 11, (4aS,7R,8aR)-4a-(2-fluoro-5-((5-fluoropyrimidin-4-yl)oxy)phenyl)-3-imino-7-(methoxymethyl)-2-methyloctahydropyrano[3,4-e][1,2,4]thiadiazine 1,1-dioxide], the Ki in assay [1] was 4.5 nM; in assay [2], 5.9 nM.
For the molecule `C[C@H]1C[C@@H]2[C@](c3cc(Oc4ncc(F)cc4F)ccc3F)(CO1)NC(=N)N(C)S2(=O)=O` [Example 5, (4aS,7S,8aR)-4a-(5-((3,5-difluoropyridin-2-yl)oxy)-2-fluorophenyl)-3-imino-2,7-dimethyloctahydropyrano[3,4-e][1,2,4]thiadiazine 1,1-dioxide], the Ki in assay [1] was 13 nM; in assay [2], 25 nM.
Consider `COC[C@H]1C[C@@H]2[C@](c3cc(Oc4cc(C#N)ccn4)ccc3F)(CO1)NC(=N)N(C)S2(=O)=O` [Example 10, 2-(4-fluoro-3-((4aS,7R,8aR)-3-imino-7-(methoxymethyl)-2-methyl-1,1-dioxidooctahydropyrano[3,4-e][1,2,4]thiadiazin-4a-yl)phenoxy)isonicotinonitrile], for which the Ki in assay [1] was 3.4 nM; in assay [2], 1.9 nM.
For the molecule `COC[C@H]1C[C@@H]2[C@](c3cc(OCC4CC4)ccc3F)(CO1)NC(=N)N(C)S2(=O)=O` [Example 14, (4aS,7R,8aR)-4a-(5-(cyclopropylmethoxy)-2-fluorophenyl)-3-imino-7-(methoxymethyl)-2-methyloctahydropyrano[3,4-e][1,2,4]thiadiazine 1,1-dioxide], the Ki was 2 nM in assay [1] and 7.9 nM in assay [2].
In the same order, the values of `C[C@H]1C[C@@H]2[C@](c3cc(Oc4cc(F)cnc4F)ccc3F)(CO1)NC(=N)N(C)S2(=O)=O` [Example 6, (4aS,7S,8aR)-4a-(5-((2,5-difluoropyridin-3-yl)oxy)-2-fluorophenyl)-3-imino-2,7-dimethyloctahydropyrano[3,4-e][1,2,4]thiadiazine 1,1-dioxide] are 15 nM and 7.1 nM.
Turning to `C[C@H]1C[C@@H]2[C@](c3cc(Oc4ncncc4F)ccc3F)(CO1)NC(=N)N(C)S2(=O)=O` [Example 4, (4aS,7S,8aR)-4a-(2-fluoro-5-((5-fluoropyrimidin-4-yl)oxy)phenyl)-3-imino-2,7-dimethyloctahydropyrano[3,4-e][1,2,4]thiadiazine 1,1-dioxide], the Ki in assay [1] was 5.9 nM; in assay [2], 12 nM.
For `COC[C@H]1C[C@@H]2[C@](c3cc(Oc4cnccc4Cl)ccc3F)(CO1)NC(=N)N(C)S2(=O)=O` [Example 19, (4aS,7R,8aR)-4a-(5-((4-chloropyridin-3-yl)oxy)-2-fluorophenyl)-3-imino-7-(methoxymethyl)-2-methyloctahydropyrano[3,4-e][1,2,4]thiadiazine 1,1-dioxide], the Ki was 89 nM in assay [1] and 203 nM in assay [2].
As to `COC[C@H]1C[C@@H]2[C@](c3cc(Oc4cccnc4)ccc3F)(CO1)NC(=N)N(C)S2(=O)=O` [Example 16, (4aS,7R,8aR)-4a-(2-fluoro-5-(pyridin-3-yloxy)phenyl)-3-imino-7-(methoxymethyl)-2-methyloctahydropyrano[3,4-e][1,2,4]thiadiazine 1,1-dioxide], the values for the Ki in assay [1] and in assay [2] were 52 nM and 39 nM, respectively.
